Reference: patent US20180172712A1, “METHODS AND MATERIALS FOR ASSESSING HYDROGEN PEROXIDE ACCUMULATION IN CELLS” (Mayo Foundation for Medical Education and Research, priority 2015, published 2018)

Key:
MM.1S cells [1] = test: Intracellular ROS by DCFDA flow cytometry; format: cell-based, human; conditions: MM.1S cells pretreated with DCFDA 30 minutes; lenalidomide 10 μM vs vehicle
Procedure: Post-treatment reactive oxygen species (ROS) levels were determined using the cell-permeable fluorogenic probe DCFDA (Invitrogen Biosciences). Briefly, million cells per 2 mL (2 million cells in 4 mL medium) were cultured overnight. DCFDA (50 μM) was added to suspended cells and incubated for 30 minutes in the dark. Cells were collected and washed once with phosphate-buffered saline (PBS) and split into 2 FACS tubes. […] Cells were analyzed using a FACSCalibur system (Becton and Dickinson), with excitation and emission spectra set at 488 and 530 nm, respectively. CellQuest software was used to calculate H2O2 production by measuring the increase in mean fluorescence.

Horseradish peroxidase = target: T1, Horseradish peroxidase (Armoracia rusticana, UniProt P00433); test: HRP/Amplex Red in-vitro assay; format: biochemical; conditions: 10 μM drug, 5 μM H2O2, 30 minutes
T1 sequence (P00433 31-338 limits assumed): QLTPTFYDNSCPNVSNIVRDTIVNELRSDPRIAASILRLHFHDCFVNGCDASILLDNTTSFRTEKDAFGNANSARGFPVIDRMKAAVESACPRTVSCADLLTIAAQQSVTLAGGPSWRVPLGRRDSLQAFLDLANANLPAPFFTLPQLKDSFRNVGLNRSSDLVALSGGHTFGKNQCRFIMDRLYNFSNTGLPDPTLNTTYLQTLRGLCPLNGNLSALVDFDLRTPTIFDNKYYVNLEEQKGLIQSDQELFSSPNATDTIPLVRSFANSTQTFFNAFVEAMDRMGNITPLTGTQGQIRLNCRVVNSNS
Procedure: (§1) After 30 minutes, plates were read for fluorescence at 530 nm excitation and 590 nm emission with plate reader (Biotek Cytation3). For determining intra-cellular peroxidase activity by Amplex Red, cells were washed and mixed with Amplex Red reagent (50 μM) in HBSS buffer and plated 100,000 cells per well into 96 well plate, four wells for each condition. […] The DMSO control included H2O2 (100 μM). […] After specific time periods, the plates were read for fluorescence intensity using plate reader.

[2] = tested on: intracellular peroxidases in HMCLs; test: Intra-cellular peroxidase activity by Amplex Red in HMCLs; format: cell-based, human; conditions: different myeloma cell lines; thalidomide 20 μM, lenalidomide 20 μM, pomalidomide 10 μM; 40 to 60 minutes
Procedure: as §1

[3] = tested on: OPM2-NT and OPM2-shCRBN cells; test: MTT assay in OPM2-NT and OPM2-shCRBN cells; format: cell-based, human; conditions: OPM2-NT vs OPM2-shCRBN, increasing concentrations, 3 days
Description: (§2) The data were normalized to the DMSO-treated group.

MM.1S cells [4] = test: MTT assay in MM.1S cells; format: cell-based, human; conditions: 3 days
Description: as §2

RPMI-8226 cells = test: MTT assay in RPMI-8226 cells; format: cell-based, human; conditions: RPMI-8226, 3 days
Description: as §2

JJN3 cells = test: MTT assay in JJN3 cells; format: cell-based, human; conditions: JJN3, 3 days
Description: as §2

KMS11 cells = test: MTT assay in KMS11 cells; format: cell-based, human; conditions: KMS11, 3 days
Description: as §2

MM.1Sres cells = test: MTT assay in MM.1Sres cells; format: cell-based, human
Description: as §2

IgL-λ dimers [5] = test: IgL dimerization immunoblot under nonreducing conditions in MM.1S cells; format: cell-based, human; conditions: 3 hours, lenalidomide 10 μM or H2O2 25 μM
Description: (§3) Proteins were transferred to polyvinylidene fluoride membranes (Bio-Rad).

IgL-λ dimers [6] = test: IgL dimerization immunoblot in MM.1S and MM.1Sres cells; format: cell-based, human; conditions: MM.1S and MM.1Sres treated for 3 days
Description: as §3

IgL-λ = IgL-λ secretion and intracellular level (immunoblot, ELISA) in OPM2-NT and OPM2-shCRBN cells; format: cell-based, human
Description: as §3

IgL-λ mRNA = test: Real-time PCR for IgL-λ mRNA; format: cell-based, human; conditions: FIG. 8B; 10, 30, or 50 μM, 72 hours
Procedure: (§4) Total RNA from HMCLs treated with lenalidomide was isolated using the Qiagen RNeasy mini kit. RNA (1 μg) was used for cDNA synthesis using iScript Reverse Transcription Supermix (Bio-Rad). Real-time polymerase chain reaction (PCR) was performed using the SYBR green method. The following primers were used for amplification: […]
(§5) The fold change of the mRNA expression was calculated from the difference between treated and untreated cells, after normalizing to an endogenous control (β-actin). Primers encompassing the spliced sequences in XBP1 mRNA were used for PCR amplification, and products were separated by electrophoresis through a 2.5% agarose gel and visualized by ethidium bromide staining. All reactions were conducted in triplicate.

[7] = tested on: ER stress markers in OPM2-NT and OPM2-shCRBN cells; test: ER stress immunoblot in OPM2-NT and OPM2-shCRBN cells; format: cell-based, human
Description: as §3

XBP-1 mRNA = XBP-1 mRNA splicing by PCR; format: cell-based, human; conditions: lenalidomide 10 μM, 3 days
Procedure: as §4, §5

Bip = Bip immunoblot in other isogenic HMCLs (MM.1S/MM.1Sres, KMS18-NT/KMS18-shCRBN); format: cell-based, human; conditions: CRBN-positive vs CRBN-negative cells, 3 days
Description: as §3

Nc1cccc2c1CN(C1CCC(=O)NC1=O)C2=O (stereo not drawn) [lenalidomide]
intracellular H2O2 (DCF fluorescence by FACS) (MM.1S cells [1]): increasing intracellular H2O2 | decomposition of H2O2 by horseradish peroxidase (Amplex Red to resorufin) (Horseradish peroxidase): inhibited | intracellular H2O2 decomposition mediated by peroxidases [2]: inhibit intracellular H2O2 decomposition | CRBN dependence of cytotoxicity (MTT) [3]: CRBN dependent | sensitivity of cell line (MTT) (MM.1S cells [4]): hypersensitive | sensitivity of cell line (MTT) (RPMI-8226 cells): resistant | sensitivity of cell line (MTT) (JJN3 cells): resistant | sensitivity of cell line (MTT) (KMS11 cells): sensitive | sensitivity of cell line (MTT) (MM.1Sres cells): resistant | formation of IgL-λ dimers (IgL-λ dimers [5]): increased formation of IgL-λ dimers | IgL-λ dimers (IgL-λ dimers [6]): IgL-λ dimers were observed only in MM.1S | total intracellular IgL protein (IgL-λ; FIG. 8C, 72 hours): increased total intracellular IgL protein | secretion of IgG-λ / IgL-λ (IgL-λ; FIG. 8D-E): decreased secretion | IgL-λ mRNA expression (IgL-λ mRNA): unchanged | ER stress response ([7]; 3 days, increasing concentrations (10, 30, or 50 μM)): an ER stress response occurred in OPM2-NT cells, but not in CRBN-knockdown cells | GRP78/BiP protein ([7]; CRBN-positive cells, 3 days): accumulated | IRE1α protein level ([7]; CRBN-positive cells, 3 days): markedly decreased | p53 protein levels ([7]; CRBN-positive cells, 3 days): decreased | p53 and PARP levels ([7]; CRBN-positive lenalidomide-sensitive cells, 6 days): complete degradation of p53 and PARP proteins | mRNA splicing of XBP-1 (XBP-1 mRNA): more evident in OPM2-NT cells than CRBN-knockdown cells | Bip protein (Bip): accumulation of Bip protein in CRBN-positive cells, but not in CRBN-negative cells
